Data taken from patent US12453728B1, “Compositions comprising inhibitors of microsomal triglyceride transfer protein and Apo-B secretion” (Redux Therapeutics, LLC, priority 2024, dated 2025).

Legend:
[1] = Lipid profile and glucose; conditions: for glucose: olanzapine study, healthy volunteers
[2] = Postprandial triglycerides after a standardized breakfast in subjects treated with olanzapine; conditions: normal healthy volunteers; 10 mg olanzapine alone, or 10 mg olanzapine + 200 mg Compound 3 BID (days 8-15)
[3] = Effect of Compound 3 on steady-state pharmacokinetics of olanzapine; format: in vivo, human; conditions: 200 mg Compound 3 BID with 10 mg olanzapine; days 8 and 15
Description: Postprandial triglycerides and lipid profiles were assessed on study days 1, 8, and 15, olanzapine pharmacokinetics was assessed on study days 8 and 15, and safety and tolerability were assessed throughout. On each of these study days, subjects consumed a standardized breakfast (˜900 kcal; 55% of kcal from fat) in 15 minutes. Blood samples were drawn prior to meal consumption and 1, 2, 3, 4, 6 and 8 hours after initiation of meal.

[4] = Body weight change during olanzapine treatment
[5] = in vivo

| impact on the pharmacokinetic profile of olanzapine [3] | SMILES | LDL-C ([1]; Day 9-15, olanzapine alone vs olanzapine + Compound 3) | glucose [1] | postprandial triglycerides [2] | blunting of body weight gain from olanzapine ([4]; second week of the study, 10 mg olanzapine + 200 mg Compound 3 BID) | SAEs, fatal events, discontinuations due to adverse events [5] | weight gain during the first week of treatment ([4]; normal healthy volunteers, 10 mg olanzapine alone, first week) |
| --- | --- | --- | --- | --- | --- | --- | --- |
| did not significantly impact | COc1cccc(C(=O)Nc2ccc3c(c2)CCN(C(=O)Oc2ccccc2)C3)c1-c1ccc(C(F)(F)F)cc1 [Compound 3] | blunted | No changes in glucose were observed | greatly reduced postprandial triglycerides | significant blunting in body weight gain | – | – |
| – | Cc1cc2c(s1)Nc1ccccc1N=C2N1CCN(C)CC1 [olanzapine, reference compound] | – | No changes in glucose were observed | – | – | No SAEs, fatal events, or discontinuations due to adverse events | significant weight gain |
